Results published in ChEMBL document CHEMBL1667820, “Synthesis and antitubercular evaluation of novel substituted aryl and thiophenyl tethered dihydro-6H-quinolin-5-ones” (2011).
Values after ≈ are worked out from the molar mass of the structure shown.

Test system: Mycobacterium tuberculosis
Test: Antimycobacterial activity against Mycobacterium tuberculosis H37Rv by agar dilution method
Format: functional

Compound CC1(C)CC(=O)c2ccc(-c3ccccc3)nc2C1 has an MIC of 12.5 µg/mL (≈ 49.7 µM).
Compound CC[C@@H](CO)NCCN[C@@H](CC)CO [ETHAMBUTOL] has an MIC of 3.13 µg/mL (≈ 15.3 µM).
CC1(C)CC(=O)c2ccc(-c3ccc(Br)s3)nc2C1 was tested, and the MIC was 3.13 µg/mL (≈ 9.31 µM).
Work on Cc1ccc(-c2ccc3c(n2)CCCC3=O)cc1 yielded an MIC of 12.5 µg/mL (≈ 52.7 µM).
Compound NC(=O)c1cnccn1 [PYRAZINAMIDE] has an MIC of 50 µg/mL (≈ 406 µM).
Work on NNC(=O)c1ccncc1 [ISONIAZID] yielded an MIC of 0.1 µg/mL (≈ 0.729 µM).
O=C1c2ccc(-c3cccs3)nc2CCC1(CO)CO was tested, and the MIC was greater than 25 µg/mL.
Compound COc1ccc(-c2ccc3c(n2)CCCC3=O)cc1 has an MIC of 12.5 µg/mL (≈ 49.3 µM).
Cc1ccc(-c2ccc3c(n2)CC(C)(C)CC3=O)cc1 showed an MIC of 6.25 µg/mL (≈ 23.6 µM).
O=C1CCCc2nc(-c3ccccc3)ccc21 gave an MIC of 12.5 µg/mL (≈ 56 µM).
In the case of Cc1ccc(-c2ccc3c(n2)CCC(CO)(CO)C3=O)cc1, the MIC was greater than 25 µg/mL.
Compound CC1(C)CC(=O)c2ccc(-c3ccc(Cl)s3)nc2C1 has an MIC of 3.13 µg/mL (≈ 10.7 µM).
Work on O=C1c2ccc(-c3ccc(Cl)s3)nc2CCC1(CO)CO yielded an MIC greater than 25 µg/mL.
O=C1c2ccc(-c3ccc(Br)s3)nc2CCC1(CO)CO gave an MIC greater than 25 µg/mL.
Work on O=C1CCCc2nc(-c3cccs3)ccc21 yielded an MIC of 12.5 µg/mL (≈ 54.5 µM).
O=C1CCCc2nc(-c3ccc(Cl)s3)ccc21 was tested, and the MIC was 6.25 µg/mL (≈ 23.7 µM).
For COc1ccc(-c2ccc3c(n2)CC(C)(C)CC3=O)cc1, the MIC was 12.5 µg/mL (≈ 44.4 µM).
Compound CC1(C)CC(=O)c2ccc(-c3cccs3)nc2C1 has an MIC of 6.25 µg/mL (≈ 24.3 µM).
With COc1ccc(-c2ccc3c(n2)CCC(CO)(CO)C3=O)cc1 the MIC was greater than 25 µg/mL.
O=C1c2ccc(-c3ccccc3)nc2CCC1(CO)CO gave an MIC greater than 25 µg/mL.
Compound O=C1CCCc2nc(-c3ccc(Br)s3)ccc21 has an MIC of 6.25 µg/mL (≈ 20.3 µM).
